# From US7563774B2, “Combination of FBPase inhibitors and antidiabetic agents useful for the treatment of diabetes” (Metabasis Therapeutics, Inc., priority 2000, dated 2009)
# Legend:
# ZDF rats = test: Chronic combination treatment of an insulin secretagogue and an FBPase inhibitor in the ZDF rat (Example Y); assay type: in vivo; conditions: maximal doses, 2 to 12 weeks
# Excerpt: Male ZDF rats are purchased at 7 weeks of age from Genetics Models Inc. (Indianapolis, Ind.). […] At 8 weeks of age, animals are divided into 4 treatment groups (n=8/group). The treatments are control, Compound J, glyburide, and the combination of Compound J and glyburide. […] Other parameters measured by standard assays include: lactate, glycerol, alanine, triglycerides, free fatty acids, ketone bodies, hepatic and muscle glycogen, cholesterol, VLDL, HDL, hemoglobin Alc, body weight, food and water intake, as well as other measures of carbohydrate, lipid, and protein metabolism. […] Differences between groups are evaluated ANOVA using an appropriate post hoc test. Results are considered significant with p<0.05.
# Goto-Kakizaki (GK) rats = test: Acute combination treatment of insulin and an FBPase inhibitor in the Goto-Kakizaki rat (Example CC); assay type: in vivo
# Procedure: Male Goto-Kakizaki (GK) rats were purchased at 9 weeks of age from Charles River Japan, Inc. (Tokyo, Japan). The rats were maintained under standard vivarium conditions (24-26° C., 12-hour light cycle, 12-hour dark cycle) and received standard chow and water ad libitum. At 48 weeks of age, animals were divided into 4 groups (n=6/group) after an overnight fast. The treatment groups were control, Compound J, insulin, and combination of Compound J and insulin. […] Insulin (human recombinant insulin, Penfill N300, Novo Nordisk, Denmark) was subcutaneously injected at the dose of 1.5 U/kg. Blood glucose levels in tail vein samples were measured by means of a Glucoloader-F, an automatic glucose analyzer, (A&T Co., Ltd., Tokyo, Japan).
# [1] = tested on: streptozotocin-induced diabetic rat; test: Chronic combination treatment of a fatty acid oxidation inhibitor and an FBPase inhibitor in the streptozotocin-induced diabetic rat (Example JJ); assay type: in vivo; conditions: etomoxir 3-300 mg/kg s.c., Compound J 0.2% w/w food admixture, 2-6 weeks
# Procedure: Male Sprague-Dawley rats (Charles Rivers Laboratories) weighing approximately 120 g at the beginning of the study are housed under standard vivarium conditions and fed standard chow (Purina 5001). Rats are rendered diabetic by injection of 55 mg/kg body weight of streptozotocin (STZ) in citrate buffer, pH 4.7. […] Drug treatment is continued for 2-6 weeks. Blood glucose levels are monitored at regular intervals during the treatment period. At the end of the study, rats are anesthetized and instrumented with jugular vein and carotid artery catheters. Hepatic glucose production is measured using a primed constant infusion of (^3H)-6-glucose. Blood samples are taken after two hours, and the specific activity of glucose measured by […]. Hepatic glucose production rater are calculated by standard methods.
# C57BL/KsJ db/db mice = test: Chronic combination treatment of insulin and Compound J in db/db mice (Example BB); assay type: in vivo, mouse; conditions: combination group versus insulin alone
# Procedure: Male C57BL/KsJ db/db mice were purchased at 5 weeks of age from Clea Japan, Inc. (Tokyo, Japan). […] At 19 weeks of age, animals were divided into 2 groups (n=6/group). […] Blood glucose levels in tail vein samples were measured by means of a Glucoloader-F, an automatic glucose analyzer, (A&T Co., Ltd., Tokyo, Japan).
# [2] = tested on: Zucker Diabetic Fatty rats; test: Acute combination treatment of an insulin secretagogue and Compound J in the ZDF rat (Example X); assay type: in vivo
# Procedure: Experimental Protocol: Zucker Diabetic Fatty rats (9.5 weeks of age) were fasted for 5 hours starting at 8 am. The animals were then divided into 4 treatments groups with statistically similar baseline blood glucose levels. Test compounds were administered by oral gavage. The treatments were as shown below:
# One hour after saline or drug administration, all animals received a simulated meal in the form of an oral bolus of glucose (1 g/kg). Blood glucose was then monitored at regular time intervals for 3 hours. Test compounds were prepared as suspensions in 0.1% carboxymethylcellulose. Blood samples were obtained by nicking of a tail vein. Blood glucose was measured by means of a HemoCue glucose analyzer according to the manufacturer's instructions (HemoCue Inc., Mission Viejo, Calif.). Results are expressed as the mean ± standard error of the mean for all values.
# Goto-Kakizaki rats = test: Acute combination treatment of an alpha glucosidase inhibitor and an FBPase inhibitor in Goto-Kakizaki rats (Example EE); assay type: in vivo, rat
# Procedure: Goto-Kakizaki rats, an animal model of lean NIDDM, were purchased at 5 weeks of age from Charles River Japan, Inc. (Tokyo, Japan). The rats were maintained under standard vivarium conditions (24-26° C., 12-hour light cycle, 12-hour dark cycle) and received standard chow and water ad libitum. At 18 weeks of age, animals were divided into 4 groups (n=5/group). The treatment groups were control, Compound J, acarbose (Bayer, Japan), and the combination of Compound J and acarbose. All animals were given 1 g/kg of corn starch by oral gavage. […] Acarbose was administered orally at a dose of 1 mg/kg simultaneously with starch. Blood glucose levels in tail vein samples were measured by means of a Glucoloader-F, an automatic glucose analyzer, (A&T Co., Ltd., Tokyo, Japan).
# Db/db or ob/ob mice = test: Acute combination treatment of a glucose-6-phosphatase inhibitor and an FBPase inhibitor in db/db or ob/ob mice (Example GG); assay type: in vivo, mouse; conditions: 0.5 to 300 mg/kg p.o.
# Procedure: Db/db or ob/ob mice are purchased at 5 weeks of age from Jackson Laboratories (Bar Harbor, Me.). The mice are maintained under standard vivarium conditions (24-26° C., 12-hour light cycle, 12-hour dark cycle) and receive standard chow and water ad libitum. At more than 10 weeks of age, animals are divided into 4 groups (n=5 to 7/group). […] Food is either withheld or made available after treatment. Blood glucose levels in tail vein samples are measured by means of standard manual or automated methods.
# [3] = tested on: streptozotocin diabetic Sprague Dawley rats; test: Acute combination treatment of an FBPase inhibitor and an amylin agonist in streptozotocin diabetic rats (Example HH); assay type: in vivo, rat; conditions: pramlintide 10 micrograms i.v., Compound J 300 mg/kg p.o.
# Procedure: Animals are then gavaged with 1 mL 50% glucose, and allowed ad libitum access to food. Blood glucose is collected from the tail vein at 0, 30, 60, 120, 180, and 240 minutes following glucose administration.
# [4] = tested on: Zucker Diabetic Fatty (ZDF) rat; test: Glucose lowering in the ZDF rat (Example W); assay type: in vivo; conditions: for Blood Glucose: 0.4% food admixture
# Excerpt: The Zucker Diabetic Fatty (ZDF) rat is widely used as a model for human NIDDM as the progression of the disease in these rodents is similar to that described for human […] patients. […] Clark J B, Palmer C J (1982) Diabetes 30: 126A Terrettaz J, Jeanrenaud B (1983) Endocrinology 112: 1346-1351.
# [5] = glyburide 100 mg/kg, Compound J 300 mg/kg p.o.
structure (smiles),measurement,setting,value
"CCOC(=O)[C@H](C)NP(=O)(N[C@@H](C)C(=O)OCC)c1ccc(-c2nc(N)sc2CC(C)C)o1 [Compound J, 2-Amino-5-isobutyl-4-{2-[5-(N,N′-bis((S)-1-ethoxycarbonyl)ethyl)phosphonamido]furanyl}thiazole]",glycemic control,ZDF rats,more effective than glyburide as pancreatic function declines
same,plasma glucose lowering,"Goto-Kakizaki (GK) rats; GK rats, acute",progressively decreased plasma glucose
same,"Plasma Glucose, % of before",Goto-Kakizaki (GK) rats; after 2 hour,(65.6 +/− 6.6) %
same,Plasma Glucose,"Goto-Kakizaki (GK) rats; after 2 hour, Compound J 50 mg/kg p.o., insulin 1.5 U/kg s.c.",106.3 ± 11.0 mg/dL
same,Plasma Glucose,Goto-Kakizaki (GK) rats; after 4 hours,79.6 ± 4.9 mg/dL
same,"Plasma Glucose, % of before",Goto-Kakizaki (GK) rats; after 4 hours,(51.0 +/− 2.7) %
same,Plasma Glucose,Goto-Kakizaki (GK) rats; after 6 hours,35.4 ± 10.8 mg/dL
same,"Plasma Glucose, % of before",Goto-Kakizaki (GK) rats; after 6 hours,(22.6 +/− 6.7) %
same,Plasma Glucose,Goto-Kakizaki (GK) rats; before (0 hour),161.8 ± 6.6 mg/dL
same,"Plasma Glucose, % of before",Goto-Kakizaki (GK) rats; before (0 hour),(100.0 +/− 0.0) %
same,Blood Glucose,[1],lowered significantly
same,decrease of the insulin dose required to reduce plasma glucose to target levels,C57BL/KsJ db/db mice,~40%
same,blood glucose after oral glucose load (FIG. 1),[2]; [5],lowering blood glucose to below baseline levels
same,blood lactate levels (FIG. 2),[2]; [5],increase in blood lactate levels
same,AUC glucose,"[2]; initial 4 hours post drug, glyburide 100 mg/kg, Compound J 300 mg/kg p.o., oral glucose 1 g/kg",1121 ± 82 mg·h/dL
same,maximally efficacious dose,"[2]; pilot studies, ZDF rat",300 mg/kg
same,"Plasma Glucose, relative value (% of pre-treatment value)",Goto-Kakizaki rats; 0 min,(121.8 +/− 8.0) %
same,Plasma Glucose,"Goto-Kakizaki rats; 0 min, Compound J 10 mg/kg p.o. at −60 min, acarbose 1 mg/kg p.o. with starch",218.4 ± 19.9 mg/dL
same,Plasma Glucose,Goto-Kakizaki rats; 30 min after starch,245.2 ± 29.9 mg/dL
same,"Plasma Glucose, relative value (% of pre-treatment value)",Goto-Kakizaki rats; 30 min after starch,(135.2 +/− 9.2) %
same,Plasma Glucose,Goto-Kakizaki rats; 60 min after starch,251.0 ± 28.6 mg/dL
same,"Plasma Glucose, relative value (% of pre-treatment value)",Goto-Kakizaki rats; 60 min after starch,(138.5 +/− 6.2) %
same,Plasma Glucose,Goto-Kakizaki rats; 120 min after starch,182.8 ± 18.0 mg/dL
same,"Plasma Glucose, relative value (% of pre-treatment value)",Goto-Kakizaki rats; 120 min after starch,(101.8 +/− 7.2) %
same,Plasma Glucose,Goto-Kakizaki rats; 240 min after starch,144.6 ± 9.8 mg/dL
same,"Plasma Glucose, relative value (% of pre-treatment value)",Goto-Kakizaki rats; 240 min after starch,(81.7 +/− 6.7) %
same,"Plasma Glucose, relative value (% of pre-treatment value)",Goto-Kakizaki rats; −60 min,(100.0 +/− 0.0) %
same,Plasma Glucose,Goto-Kakizaki rats; −60 min relative to starch 1 g/kg,179.8 ± 15.2 mg/dL
same,blood glucose lowering,Db/db or ob/ob mice,significantly lower blood glucose relative to control values
same,postprandial glucose excursion,[3],attenuated the postprandial glucose excursion
same,glycemic control,[4],significantly improved glycemic control
same,Blood Glucose,[4]; Day 0,674 ± 20 mg/dL
same,Blood Glucose,[4]; Day 21,452 ± 40 mg/dL
